Where two headings read alike, the source gives them in different places.
How the values were obtained:
Assay in all cases: NCI human tumor cell line panel growth inhibition
Format in all cases: cell-based
[1] = system: SW-620 colon cancer cells; details: for GI50: Homo sapiens, read-out: Log10 GI50 (converted)
Protocol: (§1) The first screen measures the cytotoxicity against a panel of sixty different human tumor cell lines. This assay provides data regarding the general cytotoxicity of an individual compound.
(§2) The length of a bar is indicative of differential cytotoxicity against a specific type of tumor cells or tumor panels.
(§3) The antitumor cytotoxicity of the thiophene compounds tested in the first two in vitro assays was measured by a microculture assay using either 3-(4,5-dimethylthiazol-2-yl)-2,5-diphenyltetrazolium bromide (MTT) or sulforhodamine B (SRB). [M. R. Boyd in "Principles and Practices of Oncology," V. T. DeVita, Jr., S. Hellman and S. A. Rosenberg (Eds.), Vol. 3, PPO Updates, Number 10, 1989.] This assay has an advantage over in vivo assay in that results are obtained within a week as opposed to several months. The assay was carried out in 96-well microtiter plates. The MTT assay is based on the production of a dark blue formazan product by dehydrogenase in the mitochondria of live tumor cells after exposure to drug for 6 days [M. C. Alley, D. A. Scudiero, A. Monks, M. L. Hursey, M. J. Czerwinski, D. L. Fine, B. J. Abbott, J. G. Mayo, R. H. Shoemaker and M. R. Boyd, Cancer Res., 48, 589, 1988.] Thus, only live cells are stained and can be measured at 570 nm. The SRB assay is based on the binding of the anionic group to the basic amino acid residues of cellular proteins after exposure of tumor cells to drug for 2 days [P. Skehan, R. Storeng, D. Scudiero, A. Monks, J. McMahon, D. Vistica, J. T. Warren, H. Bohesch, S. Kenney and M. R. Boyd, J. Nat. Cancer Inst., 82, 1107, 1990.] Thus, the total protein (viability) can be measured at 564 nm.

XP-498 CNS cancer cells = details: read-out: Log10 GI50 (converted)
Protocol: as §1, §2, §3

[2] = system: OVCAR-8 ovarian cancer cells; details: for GI50: Homo sapiens, read-out: Log10 GI50 (converted)
Protocol: as §1, §2, §3

[3] = system: NCI-H460 lung cancer cells; details: for GI50: Homo sapiens, read-out: Log10 GI50 (converted)
DLD-1 colon cancer cells = details: for GI50: Homo sapiens, read-out: Log10 GI50 (converted)
HT29 colon cancer cells = details: for GI50: Homo sapiens, HT-29, read-out: Log10 GI50 (converted)
U251 CNS cancer cells = details: Homo sapiens, U-251, read-out: Log10 GI50 (converted)
[4] = system: KM20L2 colon cancer cells; details: for GI50: Homo sapiens, KM-20L2, read-out: Log10 GI50 (converted)
[5] = system: RXF-393 renal cancer cells; details: for GI50: Homo sapiens, read-out: Log10 GI50 (converted)
UO-31 renal cancer cells = details: read-out: Log10 GI50 (converted)
[6] = system: OVCAR-5 ovarian cancer cells; details: for GI50: Homo sapiens, read-out: Log10 GI50 (converted)
SF-295 CNS cancer cells = details: read-out: Log10 GI50 (converted)
HOP-18 lung cancer cells = system: HOP-18 lung cancer cells
[7] = system: HCT-116 colon cancer cells; details: for GI50: Homo sapiens, read-out: Log10 GI50 (converted)
[8] = system: NCI-H522 lung cancer cells; details: read-out: Log10 GI50 (converted)
[9] = system: OVCAR-3 ovarian cancer cells; details: for GI50: Homo sapiens
[10] = system: LXPL-529 lung cancer cells; details: for GI50: Homo sapiens, read-out: Log10 GI50 (converted)
UACC-257 melanoma cells = details: for GI50: Homo sapiens, read-out: Log10 GI50 (converted)
SNB-75 CNS cancer cells = details: Homo sapiens, read-out: Log10 GI50 (converted)
[11] = system: A549/ATCC lung cancer cells; details: for GI50: Homo sapiens, read-out: Log10 GI50 (converted)
[12] = system: NCI-H322M lung cancer cells; details: for GI50: Homo sapiens, read-out: Log10 GI50 (converted)
[13] = system: NCI-H226 lung cancer cells; details: for GI50: Homo sapiens, read-out: Log10 GI50 (converted)
[14] = system: RXF-631 renal cancer cells; details: Homo sapiens, read-out: Log10 GI50 (converted)
786-0 renal cancer cells = details: read-out: Log10 GI50 (converted)
[15] = system: COLO-205 colon cancer cells; details: COLO-205, colon cancer; for GI50: Homo sapiens, read-out: Log10 GI50 (converted)
TK-10 renal cancer cells = details: for GI50: Homo sapiens, read-out: Log10 GI50 (converted)
HOP-62 lung cancer cells = system: HOP-62 lung cancer cells
[16] = system: HCT-15 colon cancer cells; details: for GI50: Homo sapiens, read-out: Log10 GI50 (converted)
[17] = system: CAKI-1 renal cancer cells; details: for GI50: Homo sapiens
[18] = system: IGROV-1 ovarian cancer cells; details: for GI50: Homo sapiens, read-out: Log10 GI50 (converted)
UACC-62 melanoma cells = system: UACC-62 melanoma cells
M-14 melanoma cells = details: M14, read-out: Log10 GI50 (converted)
SF-268 CNS cancer cells = details: read-out: Log10 GI50 (converted)
EKVX lung cancer cells = details: read-out: Log10 GI50 (converted)
ACHN renal cancer cells = details: read-out: Log10 GI50 (converted)
[19] = system: NCI-H23 lung cancer cells; details: read-out: Log10 GI50 (converted)
A-498 renal cancer cells = system: A-498 renal cancer cells
[20] = system: SK-OV-3 ovarian cancer cells
SK-MEL-28 melanoma cells = details: read-out: Log10 GI50 (converted)
From the text: (§4) The cytotoxic activity of the present polythiophene compounds have been measured utilizing three different assays or screens. The first screen measures the cytotoxicity against a panel of sixty different human tumor cell lines. This assay provides data regarding the general cytotoxicity of an individual compound. In particular this type of assay is useful in identifying compounds which have enhanced cytotoxic activity against slow growing tumors as compared to faster growing tumor cells such as leukemia tumor cell lines. The identification of such compounds is critical since previously identified antitumor agents have low cytotoxic activity against slower growing tumors. […] The specificity of a cytotoxic compound for tumor cell lines relative to normal cells is an important characteristic of an effective antitumor agent.
as §2, §3

[21] = system: OVCAR-4 ovarian cancer cells
From the text: as §4, §2, §3

MALME-3M melanoma cells = details: read-out: Log10 GI50 (converted)
SK-MEL-2 melanoma cells = details: read-out: Log10 GI50 (converted)
[22] = system: HCC-2998 colon cancer cells
SN12C renal cancer cells = details: read-out: Log10 GI50 (converted)
SNB-19 CNS cancer cells = system: SNB-19 CNS cancer cells
KM12 colon cancer cells = system: KM12 colon cancer cells
From the text: as §4, §2, §3

HOP-92 lung cancer cells = system: HOP-92 lung cancer cells
From the text: as §4, §2, §3

[23] = Homo sapiens, read-out: Log10 GI50 (converted)
[24] = CAKI-1, renal cancer, read-out: Log10 GI50 (converted)

Structure (SMILES): OCc1ccc(-c2cccs2)s1
- GI50 [1]: 4680 nM
- GI50 (XP-498 CNS cancer cells): 3.72 µM
- GI50 [2]: 52.5 µM
- GI50 [3]: 1.35 µM
- GI50 (DLD-1 colon cancer cells): 0.316 µM
- GI50 (HT29 colon cancer cells): 8.51 µM
- GI50 (U251 CNS cancer cells): 457 nM
- GI50 [4]: 1580 nM
- GI50 [5]: 57.5 µM
- GI50 (UO-31 renal cancer cells): 38.9 µM
- GI50 [6]: 12.9 µM
- GI50 (SF-295 CNS cancer cells): 38 µM
- GI50 (HOP-18 lung cancer cells; [23]): 10.5 µM
- GI50 [7]: 4570 nM
- GI50 [8]: 95.5 µM
- GI50 ([9]; OVCAR-3, read-out: Log10 GI50 (converted)): 2340 nM
- GI50 [10]: 288 nM
- GI50 (UACC-257 melanoma cells): 933 nM
- GI50 (SNB-75 CNS cancer cells): 0.389 µM
- GI50 [11]: 8.91 µM
- GI50 [12]: 30.2 µM
- GI50 [13]: 316 nM
- GI50 [14]: 0.813 µM
- GI50 (786-0 renal cancer cells): 32.4 µM
- GI50 [15]: 3.63 µM
- GI50 (TK-10 renal cancer cells): 234 nM
- GI50 (HOP-62 lung cancer cells; [23]): 9.77 µM
- GI50 [16]: 35.5 µM
- GI50 ([17]; CAKI-1, read-out: Log10 GI50 (converted)): 224 nM

Structure (SMILES): OCc1ccc(-c2ccc(-c3ccc(-c4cccs4)s3)s2)s1
- GI50 (XP-498 CNS cancer cells): 11 µM
- GI50 [10]: 1050 nM
- GI50 (UACC-257 melanoma cells): 10700 nM
- GI50 [18]: 1120 nM
- GI50 [13]: 5890 nM
- GI50 [14]: 11 µM
- GI50 (TK-10 renal cancer cells): 891 nM
- GI50 [17, 24]: 617 nM

Structure (SMILES): O=Cc1ccc(-c2ccc(-c3cccs3)s2)s1 [drawing 32]
- GI50 [1]: 537 nM
- GI50 [2]: 53.7 µM
- GI50 [3]: 13.8 µM
- GI50 (DLD-1 colon cancer cells): 7.94 µM
- GI50 (UACC-62 melanoma cells; [23]): 10 nM
- GI50 (M-14 melanoma cells): 63.1 µM
- GI50 (SF-268 CNS cancer cells): 87.1 µM
- GI50 (HT29 colon cancer cells): 24.5 µM
- GI50 [4]: 490 nM
- GI50 [5]: 16.6 µM
- GI50 (UO-31 renal cancer cells): 41.7 µM
- GI50 [6]: 0.138 µM
- GI50 (EKVX lung cancer cells): 55 µM
- GI50 (SF-295 CNS cancer cells): 69.2 µM
- GI50 (ACHN renal cancer cells): 51.3 µM
- GI50 [19]: 55 µM
- GI50 (A-498 renal cancer cells; Homo sapiens, A498, read-out: Log10 GI50 (converted)): 43.7 nM
- GI50 [7]: 63.1 nM
- GI50 [8]: 32.4 µM
- GI50 ([9]; OVCAR-3, ovarian cancer, read-out: Log10 GI50 (converted)): 30.2 nM
- GI50 [10]: < 10 nM
- GI50 (UACC-257 melanoma cells): 46.8 nM
- GI50 [18]: 60.3 nM
- GI50 (SNB-75 CNS cancer cells): 31.6 µM
- GI50 [11]: 32.4 µM
- GI50 [12]: 42.7 µM
- GI50 [13]: 24.5 nM
- GI50 [20, 23]: 87.1 µM
- GI50 (SK-MEL-28 melanoma cells): 89.1 µM
- GI50 [21, 23]: 30.9 µM
- GI50 (786-0 renal cancer cells): 43.7 µM
- GI50 [15]: 5.37 µM
- GI50 (TK-10 renal cancer cells): 525 nM
- GI50 (MALME-3M melanoma cells): 79.4 µM
- GI50 [16]: 24 µM
- GI50 (SK-MEL-2 melanoma cells): 30.9 µM
- GI50 [17, 24]: 13.8 nM
- GI50 [22, 23]: 17.8 µM
- GI50 (SN12C renal cancer cells): 47.9 µM

Structure (SMILES): OCc1ccc(-c2ccc(CO)s2)s1 [drawing 33]
- Log10 GI50 [1]: -5.04 M
- Log10 GI50 [2]: -5.23 M
- Log10 GI50 [3]: -6.29 M
- Log10 GI50 (DLD-1 colon cancer cells): -4.74 M
- Log10 GI50 (UACC-62 melanoma cells): -6.36 M
- Log10 GI50 (HT29 colon cancer cells): -5.04 M
- Log10 GI50 [4]: -6.15 M
- Log10 GI50 [5]: -7.05 M
- Log10 GI50 [6]: -6.06 M
- Log10 GI50 (HOP-18 lung cancer cells): -5.51 M
- Log10 GI50 (A-498 renal cancer cells): -7.71 M
- Log10 GI50 [7]: -5.27 M
- Log10 GI50 (SNB-19 CNS cancer cells): -4.72 M
- Log10 GI50 ([9]; OVCAR-3, ovarian cancer): -5.70 M
- Log10 GI50 [10]: -6.33 M
- Log10 GI50 (UACC-257 melanoma cells): -6.00 M
- Log10 GI50 [18]: -6.57 M
- Log10 GI50 [11]: -5.91 M
- Log10 GI50 [12]: -5.77 M
- Log10 GI50 [13]: -7.60 M
- Log10 GI50 [20]: -5.80 M
- Log10 GI50 (KM12 colon cancer cells): -4.35 M
- Log10 GI50 [21]: -4.46 M
- Log10 GI50 (HOP-92 lung cancer cells): -4.09 M
- Log10 GI50 [15]: -6.22 M
- Log10 GI50 (TK-10 renal cancer cells): -6.29 M
- Log10 GI50 (HOP-62 lung cancer cells): -5.52 M
- Log10 GI50 [16]: -4.19 M
- Log10 GI50 ([17]; CAKI-1, renal cancer): -6.63 M
- Log10 GI50 [22]: -6.40 M

From US5741811A, “Polythiophene anti-tumor agents” (Purdue Research Foundation, priority 1996, dated 1998)
